According to patent publication US20220162215A1, “COMPOSITIONS AND METHODS OF USING THE SAME FOR TREATMENT OF NEURODEGENERATIVE AND MITOCHONDRIAL DISEASE” (MITOKININ, INC., priority 2019, published 2022):
Like-named read-outs stand apart in the source and are kept apart here.

Key:
HeLa MKYP cells [1] = test: Human mitophagy assay (HeLa MKYP, mtKeima FACS, FCCP/oligomycin); type: cell-based
Method: (§1) Briefly, HeLa MKYP cells were plated at 10,000 cells/well in 96 well plates along with compounds at various concentrations. Following 16 hrs of incubation, cells were treated with 1 uM FCCP/oligomycin for 6 hours, then analyzed via FACS for the presence of mitochondria in lysosomes (as determined by an emissions spectrum shift from the pH-sensitive mtKeima tag). Examples are shown in FIG. 1 through FIG. 13 below.

HeLa MKYP cells [2] = test: Toxicity / cell death measured by DAPI staining (take-up); type: cell-based; settings: 50 μM
Method: H2O2 treatment was performed as a control for cell death as measured by DAPI staining.
as §1, with “tag).” for “tag). Examples are shown in FIG. 1 through FIG. 13 below.”

[3] = Visual inspection of crystallization; type: physicochemical; set-up: key: 1: yes crystals; 0: no crystals; settings: Tables 5A-5D
Method: (§2) Briefly, the Hela MKYP (Mito-Keima/YFP-Parkin) cells were seeded at 10K cells/well. EP/MTK compounds were added at seeding (cells were still in suspension). The cells were incubated with the EP/MTK compounds for 16 hours, then 1 μM FCCP/oligomycin was added for 6 hours. Prior to harvesting, cells were scored by eye under 20× magnification for the presence or absence of crystalline or aggregated compound, or round cells.

[4] = tested on: Hela MKYP (Mito-Keima/YFP-Parkin) cells; test: Inspection of round cells; settings: Tables 6A-6D
Method: as §2

[5] = Homo sapiens, HeLa, Table 3, read-out: Potency at 1 μM F/O toxin* (EC50 of mitophagy activation)
[6] = Homo sapiens, HeLa, Table 3 Supplement A, as measured in Table 3, read-out: Potency (EC50 Max Mitophagy) (μM)*

Structure (SMILES)	EC50 (HeLa MKYP cells [1]; [5]) [µM]	EC50 (HeLa MKYP cells [1]; [6]) [µM]	Toxicity (% positive for DAPI takeup @ 50 μM) (HeLa MKYP cells [2]; Table 3) [%]	Toxicity (% positive for DAPI take-up at 50 μM)* (HeLa MKYP cells [2]; Table 3 Supplement A) [%]	Visual inspection of crystallization ([3]; 1.6 μM)	Visual inspection of crystallization ([3]; 3.1 μM)	Visual inspection of crystallization ([3]; 6.3 μM)	Visual inspection of crystallization ([3]; 12.5 μM)	Visual inspection of crystallization ([3]; 25.0 μM)	Visual inspection of crystallization ([3]; 50.0 μM)	Inspection of round cells ([4]; 1.6 μM)	Inspection of round cells ([4]; 3.1 μM)	Inspection of round cells ([4]; 6.3 μM)	Inspection of round cells ([4]; 12.5 μM)	Inspection of round cells ([4]; 25.0 μM)	Inspection of round cells ([4]; 50.0 μM)	further results
C[C@H](Nc1ncnc2[nH]cnc12)c1ccccc1 [Compound 27]	2	2.09	11.7	13.52	0	0	0	0	0	0	0	0	0	0	0	0	
CC(Nc1ncnc2[nH]c(C3CC3)nc12)c1ccccc1 (stereo not drawn) [Compound 28]	6.3	6.32	18.3	18.26	0	0	0	0	0	0	0	0	0	0	0	0	
C[C@@H](Nc1ncnc2[nH]c(C(F)(F)F)cc12)c1ccccc1 [Compound 38]	3.1	3.62	63.7	52.58	0	0	0	0	0	0	0	0	0	0	0	1	
CCC(Nc1ncnc2[nH]c(C(F)(F)F)cc12)c1cncnc1 (stereo not drawn) [Compound 43]	18.8	18.8	15.9	15.86	0	0	0	0	0	0	0	0	0	0	0	0	
C[C@H](Nc1ncnc2[nH]c(C(F)(F)F)cc12)c1cncnc1 [Compound 44]	3.1	3.15			0	0	0	0	0	0	0	0	0	0	0	0	Toxicity (% positive for DAPI take-up at 50 μM)* (HeLa MKYP cells [2]; human): 23.68%; Toxicity (% positive for DAPI takeup @ 50 μM) (HeLa MKYP cells [2]; human): 23.7%
CN(C)C1CCC(CNc2ncnc3[nH]c(C(F)(F)F)cc23)CC1 (stereo not drawn) [Compound 50]	> 50		5.2	5.16	0	0	0	0	0	0	0	0	0	0	0	0	Potency (EC50 Max Mitophagy) (μM)* (HeLa MKYP cells [1]; Table 3 Supplement A, as measured in Table 3): 0.01 µM
C[C@@H](Nc1ncnc2[nH]cnc12)c1ccccc1 [Compound 63]			11.5														EC50 (HeLa MKYP cells [1]; Table 3, read-out: Potency at 1 μM F/O toxin* (EC50 of mitophagy activation)): 47.4 µM; EC50 (HeLa MKYP cells [1]; Table 3 Supplement A, as measured in Table 3, read-out: Potency (EC50 Max Mitophagy) (μM)*): > 25 µM; Toxicity (% positive for DAPI take-up at 50 μM)* (HeLa MKYP cells [2]; Table 3 Supplement A, listed as EP-0036422): 11.51%
C[C@@H](Nc1nccc2[nH]cnc12)c1ccccc1 [Compound 64]	> 50	> 25	7.6	7.63													
CC(CNc1ncnc2[nH]cnc12)c1ccccc1 (stereo not drawn) [Compound 65]	3.6	3.61	28.9	28.92													
c1ccc(C2(Nc3ncnc4[nH]cnc34)CC2)cc1 [Compound 72]	> 50	> 25	13.4	13.38													
Cc1nc2c(N[C@H](C)c3ccccc3)ncnc2[nH]1 [Compound 73]	> 50	> 25	9.7	9.69													
Cc1nc2c(N[C@@H](C)c3ccccc3)ncnc2[nH]1 [Compound 74]	4.6	4.65	31.9	31.93													
